The source of these data is US8299040B2, “Methods for treating cancer targeting transglutaminase” (Board of Regents, The University of Texas System, priority 2006, dated 2012).

Entries after “also recorded” stand apart in the source; their conditions may differ.

Test [1] has as its system NF-κB. The test can be described thus: NF-κB-dependent SEAP reporter gene assay, Panc28 cells. The class given is cell-based, human. How it is done: (§1) NF-κB dependent reporter gene transcription was analyzed using secretory alkaline phosphatase (SEAP) assay as described previously. Briefly, Panc28 and MCF-7 cells (5×10^5 cells/well in a six-well plate) were transiently transfected by the calcium phosphate method in a 1 ml medium containing 0.5 μg of NF-κB promoter DNA, linked to the heat-stable SEAP gene or with the control plasmid pCMV-FLAG1 DNA. Transfected cells were either left untreated or treated with 1 μM A23187 (Sigma-Aldrich), 1 mM BPA, or 1 nM tumor necrosis factor (TNF)-α (Genentech, South San Francisco, Calif.). Twenty-four hours after treatment, the conditioned medium was removed and assayed for SEAP activity according to the manufacturer's instructions (Clontech Laboratories, Mountain View, Calif.) using an automated microplate reader (PerkinElmer, Wellesley, Mass.). In some experiments cells were co-transfected with dominant-negative construct of IκBα along with NF-κB reporter gene.

Test [2] has as its system NF-κB. The test can be described thus: NF-κB activation by EMSA, Panc28 cells. Type of test: cell-based, human. The note with it: for effect on A23187-induced activation of NF-κB: Panc28. How it is done: (§2) To assess NF-κB activation, electrophoretic mobility shift assay (EMSA) was performed as described previously. Briefly, nuclear extracts prepared from cells (1×10^6/ml) were incubated with a ^32P end-labeled 45-mer double-stranded NF-κB oligonucleotide (15 μg of protein with 16 fmol of DNA) from the human immunodeficiency virus long terminal repeat, 5′-[…] […] CGCTG […] […]-3′ (boldface indicates NF-κB binding sites) (SEQ ID NO:17), for 30 minutes at 37° C., and the DNA-protein complex formed was separated from free oligonucleotide on 6.6% native polyacrylamide gels. A double-stranded mutated oligonucleotide, 5′-[…] […] CGCTG […] […]-3′ (SEQ ID NO:18), was used to examine the specificity of binding of NF-κB to the DNA. The specificity of binding was also examined using competition with the unlabeled and mutated oligonucleotides. For supershift assays, nuclear extracts were incubated with antibodies against either the p50 or the p65 subunit of NF-κB for 30 minutes at 37° C. before the complex was analyzed using EMSA.
(In general: Mobility shift assays separate free from complexed probe on a gel.)

The test system of test [3] is NF-κB. The test can be described thus: NF-κB-dependent SEAP reporter gene assay, MCF-7/WT cells. The class given is cell-based, human. How it is done:
as §1
In general terms: A reporter such as luciferase makes a cellular process visible.

Test [4] concerns NF-κB. Nature of the test: NF-κB activation by EMSA, BxPc3 cells. The class given is cell-based, human. The note with it: 1 μM or 2 μM, 24 hours. How it is done:
as §2

The subject of test [5] is NF-κB. The test can be described thus: NF-κB activation by EMSA, MCF-7 cells. The class given is cell-based, human. To be noted: MCF-7 cells (lack TG2). As for the experimental part:
as §2

The subject of test [6] is Panc-28 tumors. The test can be described thus: TUNNEL assay of apoptosis in Panc-28 tumors. The class given is in vivo, nude mice. As for the experimental part: Terminal deoxynucleotidyl transferase mediated […] nick end labeling (TUNNEL) assay (Roche Molecular Biochemicals, Mannhein, Germany) of frozen sections to detect apoptotic cells was performed according to the manufacturer's protocol. The apoptotic fluorescence-positive cells were counted under a microscope and expressed as the percentage of total cells±SE. Ten fields in three tumors per treatment group were examined.

Test [7] has as its system Panc-28 cells. Nature of the test: Gemcitabine cytotoxicity, MTS assay, Panc-28. Type of test: cell-based. To be noted: Homo sapiens, 72 hours. How it is done: (§3) The number of viable cells remaining after the appropriate treatment was determined by measuring their ability to reduce 3-(4,5-dimethylthiazol-2-yl)-5-(3-carboxymethoxyphenyl)-2H-tetrazolium (MTS) into a soluble formazan in accordance with the manufacturer's instructions. Logarithmically growing cells were plated at 2×10^3 cells per well in 96-well plates and allowed to adhere overnight. […] Each experiment was repeated three times in triplicate. […] Under identical conditions, the cells were trypsinized, and the cell viability was determined with a trypan blue exclusion test to confirm the MTS results.

Test [8] concerns Panc-28 tumors. The test can be described thus: Orthotopic Panc-28 PDAC tumor model: tumor growth and metastasis. The class given is in vivo, nude (nu/nu) mice. The note with it: vs control siRNA group, end of treatment.
Text: Panc-28 cells were stably transduced with the firefly luciferase gene as described previously (23). Luciferase-infected Panc-28 cells were harvested from subconfluent cultures after brief exposure to 0.25% trypsin and 0.2% EDTA. Trypsinization was stopped with the medium containing 10% fetal bovine serum. The cells were washed once in serum-free medium and resuspended in PBS. Single cell suspensions with >90% cell viability were used for implantation into the mice. Animals were anesthetized using intraperitoneal injection of 200 μl ketamine (100 mg/kg) and xylazine (5-10 mg/kg). […] The incision was closed in a single layer using sterile surgical Autoclips (Braintree Scientific, Braintree, Mass.), antibacterial mycotic cream was applied to the wound and the animal was placed on a heating pad to maintain body temperature and closely monitored until conscious.
Tumor growth in the mice after tumor-cell implantation was monitored weekly using a noninvasive bioimaging technique. […] Ten minutes after injection, each mouse was placed in the right lateral decubitus position, and bioluminescence was measured using a cryogenically cooled IVIS imaging system coupled with a data acquisition computer running LivingImage software (Xenogen Corp., Alameda, Calif.). […] The signal intensity was quantified as the sum of all detected photons within the region of interest per second per cm^2 per steridian. […]
The test system of test [9] is Panc-28 tumors. The test can be described thus: Microvessel density (CD31) in Panc-28 tumors. The class given is in vivo, nude mice. To be noted: CD31 staining. The text has this: A rat anti-mouse CD31 monoclonal antibody was used to determine the microvessel density in xenografts. The CD31 stained slides were observed under a Leica DM4000B fluorescence microscope (Leica Microsystems Inc, Bannockburn, Ill.) equipped with SPOT-RTKE digital camera (Diagnostic instruments, Sterling Heights, Mich.) and the images were acquired and stored using SPOT advanced software (Diagnostic instruments, Sterling Heights, Mich.). The stored images were processed using NIH ImageJ software. The vessel density in each image was estimated by setting a minimum threshold of 4 pixel^2. Setting a minimum threshold enables to avoid the background non-specific staining and to eliminate the fluorescence signal from single endothelial cell. Results were expressed as the mean number of vessels±SE per high power field (HPF, 100× magnification). A total of 20 random HPFs were examined and counted in four different tumor samples from each treatment group.

Test [10] has as its system BxPC-3 cells. Nature of the test: Gemcitabine cytotoxicity, MTS assay, BxPC-3. To be noted: Homo sapiens. Type of test: cell-based. As for the experimental part: as §3
(Tetrazolium dyes change colour on reduction, which living cells bring about.)

In test [11] the test system is VEGF, pAkt (ser473). Nature of the test: VEGF and pAkt expression in Panc-28 tumors. Also on record: species or system nude mice. To be noted: mouse, in vivo. How it is done:
Pancreatic tumor tissue samples obtained from control and experimental mice were minced and incubated on ice for 30 min in 0.5 ml of ice-cold lysate buffer (20 mmol/L Tris-HCl, pH 7.4, containing 10% NP-40, 5 mol/L NaCl, 1 mol/L HEPES, 0.5 mol/L EDTA, 0.1 mol/L phenylmethylsulfonyl fluoride, 0.2 mol/L sodium orthovanadate, 1 mol/L NaF, 2 μg/ml aprotinin, and 2 μg/ml leupeptin). The minced tissue was homogenized using a Dounce homogenizer and centrifuged at 16,000×g at 4° C. for 10 min. Fifty micrograms of total protein from each sample was then fractionated using sodium dodecyl sulfate-polyacrylamide gel, electrotransferred onto nitrocellulose membranes, blotted with appropriate antibodies, and antigen antibody reaction detected using enhanced chemiluminescence (Amersham Pharmacia Biotech, Piscataway, N.J.). […] The protein bands obtained were quantified using the AlphaEase FC (Fluor Chem 8900) software program (Alpha Innotech, San Leandro, Calif.).
Tissue microarray slides constructed using 65 formalin-fixed patient tumor samples and 9 normal pancreatic tissue samples were used for this study. […] TG2 protein expression in these tumor samples and xenograft tumors from siRNA treated mice was evaluated immunohistochemically using the Vectastatin Elite ABC immunostaining kit (Vector Laboratories, Burlingame, Calif.) as described previously (12). […]

In test [12] the test system is Panc-28 tumors. The test can be described thus: Ki-67 proliferation staining of Panc-28 tumors. To be noted: mouse, in vivo. Also on record: species or system nude mice. The text has this: Ki-67 staining was used to evaluate the proliferation index of in vivo growing xenografts and expressed as the number of Ki-67^+ cells±standard error (SE) as determined by counting 10 random microscopic fields for three different tumor samples per treatment group.

Test [13] relates to MiaPaCa-2 cells. Nature of the test: Gemcitabine cytotoxicity, MTS assay, MiaPaCa-2. The note with it: Homo sapiens, MIA PaCa-2, 72 hours. The class given is cell-based. How it is done:
as §3

`CNc1ccc2oc(C[C@H]3O[C@@]4(CC[C@H]3C)O[C@H]([C@H](C)C(=O)c3ccc[nH]3)[C@H](C)C[C@H]4C)nc2c1C(=O)O` [A23187]: the “SEAP expression in response to A23187” value in test [1] (Panc28, 1 µM for 24 hours) is “did not increase further”. Moreover, the “basal TG2 activity and constitutive NF-κB activation” value in test [2] (Panc28 cells) is recorded as “could be further induced”. In addition, in test [3], the “A23187-induced SEAP activity” value is on record as “No basal or A23187-induced activity of SEAP”. Also, the NF-κB activation entry was “strong activation of NF-κB” in test [4] and “failed to show an increase in NF-κB activation” in [5].
A word on the inhibition: it is the share of the control response that was lost under treatment. Take `NCCCCCNC(=O)CCCC[C@@H]1SC[C@@H]2NC(=O)N[C@@H]21` [BPA, 5-(biotinamido) pentylamine]: in [1] (Panc28, P<0.002), the “inhibition of SEAP expression” value was “significantly inhibited”. Further, in [2] (Homo sapiens, Panc28, 1 mM for 24 hours, read-out: inhibition of constitutive activation of NF-κB), the inhibition at 1000 µM was about 70%. For the same compound, the “effect on A23187-induced activation of NF-κB” value in test [2] is listed as “failed to further augment A23187-induced activation of NF-κB”. Besides, in [3] (BPA 1 mM), the “inhibition of TNF-α-induced SEAP expression” value was “not by BPA”.
`CN(C)c1cccc2c(S(=O)(=O)NCCCCCN)cccc12` [MDC, monodansylcadaverine] displayed an inhibition at 50 µM in test [2] (Homo sapiens, Panc28, 50 μM, 24 hours) of about 60%. Further, the “effect on A23187-induced activation of NF-κB” value in [2] was “blocked A23187-induced activation”.
Usually IC50 stands for the concentration at which inhibition is half-maximal. A high value points to a need for much substance. In the case of `Nc1ccn([C@@H]2O[C@H](CO)[C@@H](O)C2(F)F)c(=O)n1` [gemcitabine], the “apoptotic cells in tumors” value in [6] was “significant increases in the numbers of apoptotic cells”. Besides, the IC50 in test [7] amounted to 1000 nM; in test [10] (BxPC-3 cells (TG2-deficient), 72 hours), 10 nM; in [10] (BxPC-3 cells infected with TG2wt adenoviral construct, data not shown), 100 nM; in test [13] it was 100 nM. For the same compound, in test [8], the metastasis score entry is given as “completely ineffective in inhibiting metastasis; also recorded: no decreases in the metastasis score”. Moreover, the “mean blood vessel / microvascular density” value in [9] is “significant decrease in the mean blood vessel density”. For the same compound, in test [11], the “pAkt (serine 473) in tumors” value is listed as “no significant changes in NF-κB activity or pAkt levels”. In [12], the Ki-67 staining entry was “high levels of Ki-67 staining”.
In turn, TNF-α displayed an SEAP reporter expression in test [3] (TNF 1 nM, fold over non-transfected control) of 14 fold.
